Columns and labels:
[1] = system: blackgrass; assay: Test B pre/postemergence blackgrass; assay type: in vivo, Alopecurus myosuroides; settings: for Blackgrass plant response rating (0 to 10 scale): 0 is no effect
How it was run: (§1)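 Herbicidal effect was estimated by eye on a ten-point control scale after plants spent twelve to sixteen days in a greenhouse following soil or foliar treatment. Foliar sprays targeted plants at one to four leaves; all doses were formulated in a non-phytotoxic solvent with surfactant.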

[2] = system: surinam grass; assay: Test B pre/postemergence surinam grass; assay type: in vivo, Brachiaria decumbens; settings: for B. signalgrass plant response rating (0 to 10 scale): 0 is no effect
How it was run: as §1

[3] = system: sugar beet; assay: Test B pre/postemergence sugar beet; assay type: in vivo, Beta vulgaris; settings: for Sugarbeets plant response rating (0 to 10 scale): 0 is no effect
How it was run: as §1

[4] = system: bamyardgrass; assay: Test B flood test barnyardgrass; assay type: in vivo, Echinochloa crus-galli; settings: for Plant response rating, Barnyardgrass: Postemergence (flood test)
How it was run: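 Flood test on plants grown to the 2-leaf stage; treated plants kept in greenhouse twelve to sixteen days, then visually rated against controls on a 0 (no effect) to 10 (complete control) scale.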

[5] = Postemergence, Rate 62 g/ha, scale 0 to 10, 0 is no effect, 10 is complete control
[6] = Postemergence, Rate 250 g/ha, scale 0 to 10, 0 no effect, 10 complete control
[7] = Preemergence, Rate 62 g/ha, scale 0 to 10 (0 no effect, 10 complete control)
[8] = Preemergence, Rate 125 g/ha, scale 0 to 10 (0 no effect, 10 complete control)
[9] = Preemergence, Rate 250 g/ha, scale of 0 to 10 where 0 is no effect and 10 is complete control
[10] = Preemergence, Rate 500 g/ha, scale 0 (no effect) to 10 (complete control)
[11] = Rate 125 g/ha, Postemergence, scale 0 to 10, 0 no effect, 10 complete control
[12] = Rate 500 g/ha, Postemergence, scale 0 to 10, 0 no effect, 10 complete control
[13] = Rate 500 g/ha, Postemergence, scale of 0 to 10 where 0 is no effect and 10 is complete control
[14] = Rate 125 g/ha, Postemergence section (flood test species), scale 0 to 10, 0 no effect, 10 complete control
[15] = Rate 500 g/ha, listed under Postemergence (flood test species), scale 0 to 10, 0 no effect, 10 complete control
[16] = flood test, listed under Postemergence, Rate 250 g/ha, scale 0 to 10, 0 no effect, 10 complete control
[17] = Postemergence, Rate 125 g/ha, scale of 0 to 10 where 0 is no effect and 10 is complete control
[18] = Preemergence, Rate 500 g/ha, scale 0 to 10 (0 no effect, 10 complete control)
[19] = Rate 62 g/ha, Postemergence, scale of 0 to 10 where 0 is no effect and 10 is complete control
[20] = Preemergence, Rate 125 g/ha, 10 is complete control
[21] = Rate 250 g/ha, Postemergence, scale 0 to 10, 0 is no effect, 10 is complete control
[22] = Postemergence, Rate 1000 g/ha, scale 0 to 10 (0 no effect, 10 complete control)
[23] = Preemergence, Rate 250 g/ha, scale 0 to 10, 0 is no effect, 10 is complete control
[24] = Rate 500 g/ha, Postemergence, scale 0 to 10
[25] = Rate 1000 g/ha, Preemergence, scale 0 to 10 (0 no effect, 10 complete control)
[26] = Postemergence (flood test species), Rate 125 g/ha, scale of 0 to 10 where 0 is no effect and 10 is complete control
[27] = Rate 250 g/ha, scale 0 to 10, 0 is no effect, 10 is complete control
[28] = Rate 62 g/ha, Postemergence section, flood test species, scale of 0 to 10 where 0 is no effect and 10 is complete control
[29] = Preemergence, Rate 31 g/ha, visual rating, scale 0 to 10 (0 no effect, 10 complete control)
[30] = Rate 31 g/ha, Postemergence, scale 0 to 10

Cc1ccccc1Cn1c(=O)on(C(=O)N(C)c2ccccc2)c1=O [Compound 85]
0: Blackgrass plant response rating [1, 5] | Blackgrass plant response rating [1, 6] | Blackgrass plant response rating [1, 7] | Plant response rating, Blackgrass [1, 8] | Plant response rating, Blackgrass [1, 9] | Blackgrass plant response rating [1, 10] | Blackgrass plant response rating [1, 11] | Blackgrass plant response rating [1, 12] | B. signalgrass plant response rating [2, 5] | B. signalgrass plant response rating [2, 6] | B. signalgrass plant response rating [2, 7] | Plant response rating, B. signalgrass [2, 8] | Plant response rating, B. signalgrass [2, 9] | B. signalgrass plant response rating [2, 10] | B. signalgrass plant response rating [2, 11] | B. signalgrass plant response rating [2, 13] | Sugarbeets plant response rating [3, 5] | Sugarbeets plant response rating [3, 6] | Sugarbeets plant response rating [3, 7] | Plant response rating, Sugarbeets [3, 8] | Plant response rating, Sugarbeets [3, 9] | Sugarbeets plant response rating [3, 10] | Sugarbeets plant response rating [3, 11] | Sugarbeets plant response rating [3, 12] | Barnyardgrass plant response rating [4, 5] | Barnyardgrass plant response rating [4, 14] | Barnyardgrass plant response rating [4, 15] | Barnyardgrass plant response rating [4, 16]

CC(C)N(C(=O)n1oc(=O)n(Cc2ccccc2)c1=O)c1ccc(Cl)cc1 [Compound 106]
2: Blackgrass plant response rating [1, 18] | B. signalgrass plant response rating [2, 18] | Sugarbeets plant response rating [3, 18]
3: Blackgrass plant response rating [1, 12]
0: Blackgrass plant response rating [1, 17] | Blackgrass plant response rating [1, 7] | Plant response rating, Blackgrass [1, 8] | Plant response rating, Blackgrass [1, 9] | Blackgrass plant response rating [1, 19] | B. signalgrass plant response rating [2, 5] | B. signalgrass plant response rating [2, 6] | B. signalgrass plant response rating [2, 7] | Plant response rating, B. signalgrass [2, 8] | Plant response rating, B. signalgrass [2, 9] | B. signalgrass plant response rating [2, 11] | B. signalgrass plant response rating [2, 13] | Sugarbeets plant response rating [3, 17] | Sugarbeets plant response rating [3, 7] | Sugarbeets plant response rating (0 to 10 scale) [3, 20] | Plant response rating, Sugarbeets [3, 9] | Sugarbeets plant response rating [3, 19] | Plant response rating, Sugarbeets [3, 21] | Sugarbeets plant response rating [3, 12] | Barnyardgrass plant response rating [4, 5] | Barnyardgrass plant response rating [4, 14] | Barnyardgrass plant response rating [4, 15] | Barnyardgrass plant response rating [4, 16]
1: Blackgrass plant response rating [1, 6]

C=CCn1c(=O)on(C(=O)N(c2ccc(F)cc2F)C2CC2)c1=O [Compound 127]
0: Blackgrass plant response rating [1, 17] | Blackgrass plant response rating [1, 22] | Blackgrass plant response rating [1, 7] | Blackgrass plant response rating (0 to 10 scale) [1, 20] | Blackgrass plant response rating [1, 23] | Blackgrass plant response rating [1, 18] | Blackgrass plant response rating [1, 19] | Plant response rating, Blackgrass [1, 21] | Blackgrass plant response rating [1, 24] | Plant response rating, Blackgrass [1, 25] | B. signalgrass plant response rating [2, 5] | B. signalgrass plant response rating [2, 17] | B. signalgrass plant response rating [2, 22] | B. signalgrass plant response rating [2, 7] | B. signalgrass plant response rating (0 to 10 scale) [2, 20] | B. signalgrass plant response rating [2, 23] | B. signalgrass plant response rating [2, 18] | Plant response rating, B. signalgrass [2, 21] | B. signalgrass plant response rating [2, 13] | Plant response rating, B. signalgrass [2, 25] | Sugarbeets plant response rating [3, 17] | Sugarbeets plant response rating [3, 22] | Sugarbeets plant response rating [3, 7] | Sugarbeets plant response rating (0 to 10 scale) [3, 20] | Sugarbeets plant response rating [3, 23] | Sugarbeets plant response rating [3, 18] | Sugarbeets plant response rating [3, 19] | Plant response rating, Sugarbeets [3, 21] | Sugarbeets plant response rating [3, 24] | Plant response rating, Sugarbeets [3, 25] | Barnyardgrass plant response rating [4, 26] | Barnyardgrass plant response rating [4, 5] | Plant response rating, Barnyardgrass [4, 27] | Barnyardgrass plant response rating [4, 15]

CC(C)N(C(=O)n1oc(=O)n(Cc2ccccc2Cl)c1=O)C1=CCCCC1 [Compound 145]
7: Blackgrass plant response rating [1, 18] | Plant response rating, Barnyardgrass [4, 27]
4: Blackgrass plant response rating [1, 23]
0: Blackgrass plant response rating [1, 7] | Blackgrass plant response rating [1, 19] | B. signalgrass plant response rating [2, 17] | B. signalgrass plant response rating [2, 7] | B. signalgrass plant response rating (0 to 10 scale) [2, 20] | B. signalgrass plant response rating [2, 19] | Plant response rating, B. signalgrass [2, 21] | Sugarbeets plant response rating [3, 17] | Sugarbeets plant response rating [3, 7] | Sugarbeets plant response rating (0 to 10 scale) [3, 20] | Sugarbeets plant response rating [3, 23] | Sugarbeets plant response rating [3, 19] | Plant response rating, Sugarbeets [3, 21] | Sugarbeets plant response rating [3, 24] | Barnyardgrass plant response rating [4, 28]
6: Blackgrass plant response rating [1, 24] | Barnyardgrass plant response rating [4, 26]
3: B. signalgrass plant response rating [2, 23] | Sugarbeets plant response rating [3, 18]
5: Plant response rating, Blackgrass [1, 21] | B. signalgrass plant response rating [2, 18]
9: Barnyardgrass plant response rating [4, 15]
2: B. signalgrass plant response rating [2, 13]
1: Blackgrass plant response rating [1, 17] | Blackgrass plant response rating (0 to 10 scale) [1, 20]

Cc1noc(C)c1-n1c(=O)on(C(=O)N(c2ccc(F)cc2F)C(C)C)c1=O [Compound 156]
2: B. signalgrass plant response rating [2, 23]
0: Blackgrass plant response rating [1, 17] | Blackgrass plant response rating [1, 29] | Blackgrass plant response rating [1, 7] | Blackgrass plant response rating (0 to 10 scale) [1, 20] | Blackgrass plant response rating [1, 30] | Blackgrass plant response rating [1, 19] | Plant response rating, Blackgrass [1, 21] | B. signalgrass plant response rating [2, 17] | B. signalgrass plant response rating [2, 29] | B. signalgrass plant response rating [2, 7] | B. signalgrass plant response rating (0 to 10 scale) [2, 20] | B. signalgrass plant response rating [2, 30] | B. signalgrass plant response rating [2, 19] | Plant response rating, B. signalgrass [2, 21] | Sugarbeets plant response rating [3, 17] | Sugarbeets plant response rating [3, 29] | Sugarbeets plant response rating [3, 7] | Sugarbeets plant response rating (0 to 10 scale) [3, 20] | Sugarbeets plant response rating [3, 23] | Sugarbeets plant response rating [3, 19] | Plant response rating, Sugarbeets [3, 21] | Barnyardgrass plant response rating [4, 26] | Barnyardgrass plant response rating ([4]; Rate 31 g/ha, Postemergence section (flood test species), scale 0 to 10) | Barnyardgrass plant response rating [4, 28] | Plant response rating, Barnyardgrass [4, 27]
3: Blackgrass plant response rating [1, 23]

From patent US6737383B1, “Herbicidal oxadiazolidines” (priority 1999, dated 2004)
